Series [1] deals with MCF7 cells. Description: LC/MS analysis of global 5hmC levels in MCF7 cells. It is filed as cell-based, human. Conditions: 24 hours.
In series [2] the test system is PHDs. Particulars: cited from earlier work.
For series [3], the system named is HIFs. Description: HIF stabilization and hypoxia response program (Western blot, RT-qPCR) in MCF7 cells. It is filed as cell-based, human. Conditions: IOX2 50 μM. On the procedure:
Cell culture: Cells were cultured as described in the Supplemental Experimental Procedures. […] Where indicated, IOX2 (50 μM) or dimethyl α-ketoglutarate (2 mM) were added to fresh culture medium, using an equal volume of carrier (DMSO) as control for IOX2. Cells were plated at a density tailored to reach 80-95% confluence at the end of the treatment. Fresh medium was added to the cells just before the hypoxia exposure. For glutamine-free culture experiments, dialysed FBS was added to glutamine-free DMEM, and supplemented with glutamine (4 mM) for control. Extraction of DNA, RNA, proteins or metabolites was done 24 hours after the start of treatment, unless indicated otherwise. […]
RT-qPCR: For RNA extractions, cell culture medium was removed, TRIzol (Life Technologies) added and processed according to guidelines. […] Thermal cycling and fluorescence detection were done on a LightCycler 480 Real-Time PCR System (Roche), and differential expression calculated using the ΔΔCt method (Schmittgen and Livak, 2008). […]
TET mRNA concentrations and hypoxia marker gene induction: mRNA concentration analysis and statistics: Ct values were determined for each sample and gene of interest in technical duplicates, and normalized according to the corresponding amplification efficiency. […] Concentrations were expressed as averages of at least 5 independent biological replicates. […]
On the technique in general: In western blotting, separated proteins are transferred to a membrane and probed.

Series [4] addresses recombinant purified Tet1 enzyme (Mus musculus, UniProt Q3URK3). In words: DNA hydroxymethylation assay using purified TET enzyme at different O2 concentrations. Particulars: conversion of 5mC to 5hmC on genomic DNA, 3 min reaction.
For series [5], the system named is breast tumors of MMTV-PyMT mice. In words: sFlk1 overexpression by hydrodynamic plasmid injection in MMTV-PyMT mice. It is filed as in vivo, mouse. On the procedure: Murine cancer models: Animal experiments received local ethical approval (P098/2014). Animals were intercrossed and maintained as described in Supplemental Experimental Procedures. Mammary tumors were harvested at 16 weeks from Tg(MMTV-PyMT) and Tg(MMTV-PyMT); Phd2−/+ mice. For Flk1-overexpression studies, tumors allowed to develop for 11 weeks. Subsequently, 2.5 μg of plasmid (sFlk1-overexpressing or empty p156RRL2 vector) per gram of mouse body weight was introduced in the blood stream using hydrodynamic injections (Liu et al., 1999). sFlk1 overexpression was monitored at 4 days after injection and at sacrifice ([…]), by eye bleeds followed by an enzyme-linked immunosorbent assay for sFlk1 (R&D Systems, Abingdon, UK) in blood plasma. At 12 weeks of age, mice were sacrificed and mammary tumors harvested blinded for treatment. For the Phd2^+/− experiments, male Tg(MMTV-PyMT) FVB mice were intercrossed with female Phd2^−/+ mice, yielding litters of which half have either a Tg(MMTV-PyMT) genotype or a Tg(MMTV-PyMT); Phd2^−/+ genotype. For the Phd2^wt/fl experiments, male Tg(MMTV-PyMT) FVB mice were intercrossed with female Tie2-cre; Phd2^wt/fl mice as described (Kuchnio et al 2015), yielding litters of which half have either a Tie2-cre; Tg(MMTV-PyMT); Phd2^wt/wt genotype or a Tie2-cre; Tg(MMTV-PyMT); Phd2^−/+ genotype. At 16 weeks of age, female mice were sacrificed and mammary tumors harvested.
Targeted deep BS-seq: As no murine capture kit was available for targeted BSseq, a specific ampliconBS was developed for a set of 15 tumor suppressor gene promoters and 5 oncogene promoters. More specifically, DNA was bisulfite-converted using the Imprint DNA modification kit and amplified using the MegaMix Gold 2× mastermix and validated primer pairs. Per sample, PCR products were mixed to equimolar concentrations, converted into sequencing libraries using the NEBNext DNA library prep master mix set and sequenced to a depth of ˜500×. Mapping and quantification were done as described for SeqCapEpi. The average and variance of methylation level M values in normal mammary glands were used as baseline, and amplicons displaying over 3 standard deviations more methylation (FDR-adjusted P<0.05) than this baseline were called as hypermethylated. At least 9 different tumors, each from different animals, were profiled per genotype or treatment, and differences in HM frequencies between sets of tumors were assessed using Mann-Whitney's U-test.
Immunofluorescence staining: To mark hypoxic areas, mice were injected with pimonidazole (60 mg/kg, Hypoxyprobe, Massachusetts, USA) i.p. 1 hour before sacrifice. Tumors were harvested, fixed in formaldehyde and embedded in paraffin using standard procedures. Slides were deparafinated and rehydrated 2 xylene baths (5 minutes), followed by 5 times 3 minutes in EtOH baths at decreasing concentrations (100%, 96%, 70%, 50% and water) and a 3 minute Tris-buffered saline (TBS; 50 mM Tris, 150 mM NaCl, pH 7.6) bath. The following antibodies were used for immunofluorescence staining: primary antibodies were FITC-conjugated mouse anti-pimonidazole (HP2-100, Hydroxyprobe), rabbit anti-5hmC (39791, Active Motif), rat anti-polyoma middle T (AB15085, Abcam), rat anti-CD31 (557355, BD Biosciences), rat anti-CD45 (553076, BD Biosciences), rabbit anti-Ki67 (AB15580, Abcam) and mouse anti-pan cytokeratin (C2562, Sigma). […]

Bounds are passed on as bounds.

Sequence of recombinant purified Tet1 enzyme (Q3URK3 1367-2039 limits assumed): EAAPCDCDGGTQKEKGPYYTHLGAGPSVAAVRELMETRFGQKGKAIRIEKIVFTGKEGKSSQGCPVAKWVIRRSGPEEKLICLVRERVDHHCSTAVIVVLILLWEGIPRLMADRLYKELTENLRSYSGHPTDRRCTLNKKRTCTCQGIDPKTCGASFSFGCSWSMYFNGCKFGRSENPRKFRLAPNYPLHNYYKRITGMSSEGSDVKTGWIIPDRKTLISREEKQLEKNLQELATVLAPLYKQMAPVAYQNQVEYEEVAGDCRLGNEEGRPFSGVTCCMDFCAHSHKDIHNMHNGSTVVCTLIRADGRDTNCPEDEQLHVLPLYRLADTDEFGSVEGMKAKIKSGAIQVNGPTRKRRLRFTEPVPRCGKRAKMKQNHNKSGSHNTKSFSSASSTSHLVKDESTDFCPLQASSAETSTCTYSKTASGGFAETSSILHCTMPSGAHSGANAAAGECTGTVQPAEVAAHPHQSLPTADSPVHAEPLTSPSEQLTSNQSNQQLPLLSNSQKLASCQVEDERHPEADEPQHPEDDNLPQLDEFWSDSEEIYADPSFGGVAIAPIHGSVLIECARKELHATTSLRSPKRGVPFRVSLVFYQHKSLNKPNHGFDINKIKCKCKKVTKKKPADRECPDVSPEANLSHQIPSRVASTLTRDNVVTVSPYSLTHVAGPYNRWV

As to `O=C(O)CNC(=O)c1c(O)c2ccccc2n(Cc2ccccc2)c1=O` [IOX2], the “changes in global 5hmC levels” value in series [1] (IOX2 50 μM, carrier DMSO as control) was “no changes”. Also, the “specificity for PHDs over other αKG-dependent dioxygenases” value in series [2] is given as “high specificity”. For the same molecule, the “HIF stabilization and activation of the hypoxia response program” value in series [3] is “sufficient to stabilize HIFs and activate the hypoxia response program”.
As for `O=O` [oxygen], the “Km of Tet1 for oxygen” value in series [4] was roughly 0.3 % O2.
As for `COC(=O)CCC(=O)C(=O)OC` [αKG, dimethyl α-ketoglutarate], the “changes in global 5hmC levels” value in series [1] (dimethyl α-ketoglutarate 2 mM added to medium) was “Neither of these conditions however altered 5hmC levels”.

B1: sFlk1: soluble Flk1, VEGF inhibitor, overexpressed from a hydrodynamically injected plasmid (protein, UniProt P35918 20-762, looked up)
extracellular domain: ASVGLPGDFLHPPKLSTQKDILTILANTTLQITCRGQRDLDWLWPNAQRDSEERVLVTECGGGDSIFCKTLTIPRVVGNDTGAYKCSYRDVDIASTVYVYVRDYRSPFIASVSDQHGIVYITENKNKTVVIPCRGSISNLNVSLCARYPEKRFVPDGNRISWDSEIGFTLPSYMISYAGMVFCEAKINDETYQSIMYIVVVVGYRIYDVILSPPHEIELSAGEKLVLNCTARTELNVGLDFTWHSPPSKSHHKKIVNRDVKPFPGTVAKMFLSTLTIESVTKSDQGEYTCVASSGRMIKRNRTFVRVHTKPFIAFGSGMKSLVEATVGSQVRIPVKYLSYPAPDIKWYRNGRPIESNYTMIVGDELTIMEVTERDAGNYTVILTNPISMEKQSHMVSLVVNVPPQIGEKALISPMDSYQYGTMQTLTCTVYANPPLHHIQWYWQLEEACSYRPGQTSPYACKEWRHVEDFQGGNKIEVTKNQYALIEGKNKTVSTLVIQAANVSALYKCEAINKAGRGERVISFHVIRGPEITVQPAAQPTEQESVSLLCTADRNTFENLTWYKLGSQATSVHMGESLTPVCKNLDALWKLNGTMFSNSTNDILIVAFQNASLQDQGDYVCSAQDKKTKKRHCLVKQLIILERMAPMITGNLENQTTTIGETIEVTCPASGNPTPHITWFKDNETLVEDSGIVLRDGNRNLTIRRVRKEDGGLYTCQACNVLGCARAETLFIIEGAQEKTNLE
modifications: extracellular domain
Consider B1, for which, in series [5] (after sFlk1 treatment, 20% in control), the “tumor hypoxia (hypoxic area)” value was determined as 47%. Also, the “TSGs hypermethylated relative to control in at least one out of 24 hypoxic tumors” value in series [5] (deep BS-sequencing, panel of 15 TSG promoters) was 10 out of 15. Further, the “hypermethylation of oncogene promoters” value in series [5] (deep BS-sequencing, sFlk-treated tumors) is listed as “failed to display the same increase”. Also, in series [5] (during 3 weeks after hydrodynamic injection of sFlk1-expressing plasmid, versus empty plasmid), the “increase in plasma sFlk1 concentrations” value is greater than 11 fold. Moreover, in series [5] (tumor vasculature, sFlk1-treated mice), the “reduction in vessel density” value is recorded as 42±10%.

The values are drawn from patent US11814688B2, “Markers for determining tumor hypoxia” (VIB VZW, priority 2015, dated 2023).
